Measurements as given in PubChem BioAssay AID256 (DTP/NCI, 2004).
Toxic doses and inconclusive results are not listed. How the source made its calls: active means survival T/C of 150% or more; inactive means T/C below 125% in these data. Non-standard residues stand in square brackets, D forms with d. Residues, ends and D or L forms follow the SMILES beside them. ξ: configuration not given here. *: point of attachment. ONp = O=[N+]([O-])c1ccc(O*)cc1; ξS = NC(CO)C(=O)O

System: CD2F1 mice, L1210 leukemia ip, survival T/C
Experiment: NCI In Vivo Anticancer Drug Screen. Data for tumor model L1210 Leukemia (intraperitoneal) in CD2F1 (CDF1) mice
Details: higher = longer survival
Procedure, shortened: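 In this screen, transplantable tumors were grown in mice given either the compound or its vehicle. Results were expressed as the treated measurement relative to the control measurement.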

[1] = endpoint: mean survival time, dose: 100.0 mg/kg/injection, schedule: Q01DX009 (ip), vehicle: other
[2] = endpoint: mean survival time, dose: 200.0 mg/kg/injection, schedule: Q01DX009 (ip), vehicle: other
[3] = endpoint: mean survival time, dose: 100.0 mg/kg/injection, schedule: Q01DX009 (ip), vehicle: saline with Tween-80
[4] = endpoint: mean survival time, dose: 100.0 mg/kg/injection, schedule: Q04DX003 (ip), vehicle: saline with Tween-80
[5] = endpoint: mean survival time, dose: 200.0 mg/kg/injection, schedule: Q01DX009 (ip), vehicle: saline with Tween-80
[6] = endpoint: mean survival time, dose: 100.0 mg/kg/injection, schedule: Q01DX001 (ip), vehicle: saline with Tween-80
[7] = endpoint: mean survival time, dose: 200.0 mg/kg/injection, schedule: Q01DX001 (ip), vehicle: saline with Tween-80
[8] = endpoint: mean survival time, dose: 400.0 mg/kg/injection, schedule: Q01DX001 (ip), vehicle: saline with Tween-80
[9] = endpoint: mean survival time, dose: 400.0 mg/kg/injection, schedule: Q01DX009 (ip), vehicle: saline with Tween-80
[10] = endpoint: mean survival time, dose: 50.0 mg/kg/injection, schedule: Q01DX009 (ip), vehicle: saline with Tween-80

Measured: T/C

CCOC(=O)C(CCC(=O)OC)(CCC(=O)OC)C(=O)OCC
inactive: endpoint: mean survival time, dose: 100.0 mg/kg/injection, schedule: Q01DX005 (ip), vehicle: other 95 % of control | [1] 101 % of control | endpoint: mean survival time, dose: 100.0 mg/kg/injection, schedule: Q04DX002 (ip), vehicle: other 88 % of control | endpoint: mean survival time, dose: 200.0 mg/kg/injection, schedule: Q01DX005 (ip), vehicle: other 91 % of control | [2] 97 % of control | endpoint: mean survival time, dose: 200.0 mg/kg/injection, schedule: Q04DX002 (ip), vehicle: other 92 % of control | endpoint: mean survival time, dose: 400.0 mg/kg/injection, schedule: Q01DX005 (ip), vehicle: other 91 % of control | endpoint: mean survival time, dose: 400.0 mg/kg/injection, schedule: Q01DX009 (ip), vehicle: other 86 % of control | endpoint: mean survival time, dose: 400.0 mg/kg/injection, schedule: Q04DX002 (ip), vehicle: other 95 % of control

COc1ccc2c(c1)CCCC2=O
inactive: [3] 102 % of control | [4] 90 % of control | [5] 94 % of control | endpoint: mean survival time, dose: 200.0 mg/kg/injection, schedule: Q04DX003 (ip), vehicle: saline with Tween-80 93 % of control | endpoint: mean survival time, dose: 400.0 mg/kg/injection, schedule: Q04DX003 (ip), vehicle: saline with Tween-80 98 % of control

Cc1cn(C2CC(O)C(CO)O2)c(=O)nc1N1CCSCC1 (configuration not stated)
inactive: endpoint: median survival time, dose: 12.5 mg/kg/injection, schedule: Q01DX005 (ip), vehicle: distilled water + Tween-80 101 % of control | endpoint: median survival time, dose: 25.0 mg/kg/injection, schedule: Q01DX005 (ip), vehicle: distilled water + Tween-80 103 % of control | endpoint: median survival time, dose: 50.0 mg/kg/injection, schedule: Q01DX005 (ip), vehicle: distilled water + Tween-80 102 % of control | endpoint: median survival time, dose: 100.0 mg/kg/injection, schedule: Q01DX005 (ip), vehicle: distilled water + Tween-80 101 % of control | endpoint: median survival time, dose: 200.0 mg/kg/injection, schedule: Q01DX005 (ip), vehicle: distilled water + Tween-80 102 % of control

CCOC(=O)N1C=Cc2ccccc2C1/C(N)=N/O (configuration not stated)
inactive: [6] 98 % of control | endpoint: mean survival time, dose: 100.0 mg/kg/injection, schedule: Q01DX009 (ip), vehicle: Klucel (hydroxypropylcellulose) (HPC) 96 % of control | [7] 95 % of control | endpoint: mean survival time, dose: 200.0 mg/kg/injection, schedule: Q01DX009 (ip), vehicle: Klucel (hydroxypropylcellulose) (HPC) 91 % of control | [8] 94 % of control | endpoint: mean survival time, dose: 400.0 mg/kg/injection, schedule: Q01DX009 (ip), vehicle: Klucel (hydroxypropylcellulose) (HPC) 91 % of control

NC(=O)c1cn(C2OC(CO)C3OC32)c2ncnc(NC(=O)c3ccccc3)c12 (configuration not stated)
inactive: endpoint: mean survival time, dose: 25.0 mg/kg/injection, schedule: Q01DX009 (ip), vehicle: distilled water + Tween-80 90 % of control | endpoint: mean survival time, dose: 50.0 mg/kg/injection, schedule: Q01DX009 (ip), vehicle: distilled water + Tween-80 93 % of control | endpoint: mean survival time, dose: 100.0 mg/kg/injection, schedule: Q01DX009 (ip), vehicle: distilled water + Tween-80 93 % of control | endpoint: mean survival time, dose: 200.0 mg/kg/injection, schedule: Q01DX009 (ip), vehicle: distilled water + Tween-80 97 % of control | endpoint: mean survival time, dose: 400.0 mg/kg/injection, schedule: Q01DX009 (ip), vehicle: distilled water + Tween-80 100 % of control

CN(C)c1ccc(Cc2cc(O)c3c(c2O)C(=O)c2ccccc2C3=O)cc1
inactive: endpoint: mean survival time, dose: 100.0 mg/kg/injection, schedule: Q01DX009 (ip), vehicle: saline sonified 93 % of control | endpoint: mean survival time, dose: 200.0 mg/kg/injection, schedule: Q01DX009 (ip), vehicle: saline sonified 100 % of control | endpoint: mean survival time, dose: 400.0 mg/kg/injection, schedule: Q01DX009 (ip), vehicle: saline sonified 96 % of control

CCOC(=O)CCC1(C(=O)OC)C(=O)CCCCCCC1C(=O)OC (configuration not stated)
inactive: [3] 102 % of control | [5] 101 % of control | [9] 93 % of control

O=C(CNC(=O)Nc1ccc(F)cc1)N/N=C/c1c(O)ccc2ccccc12
inactive: [10] 92 % of control | [3] 96 % of control | [5] 96 % of control

Cc1cccc2c1-c1c(C)cccc1CSC2
inactive: [3] 95 % of control | endpoint: mean survival time, dose: 100.0 mg/kg/injection, schedule: Q04DX003 (ip), vehicle: saline sonified 98 % of control | [5] 97 % of control | endpoint: mean survival time, dose: 200.0 mg/kg/injection, schedule: Q04DX003 (ip), vehicle: saline sonified 93 % of control | [9] 101 % of control | endpoint: mean survival time, dose: 400.0 mg/kg/injection, schedule: Q04DX003 (ip), vehicle: saline sonified 93 % of control

COc1cc(Cl)ccc1NC(=O)OCCOc1ccc(Cl)cc1
inactive: [10] 91 % of control | [3] 88 % of control | [5] 91 % of control

Cc1cccnc1N.[Cl-].[Cl-].[Cl-].[Cl-].[Pt+2]
inactive: endpoint: mean survival time, dose: 21.88 mg/kg/injection, schedule: Q04DX003 (ip), vehicle: saline with Tween-80 104 % of control | endpoint: mean survival time, dose: 43.75 mg/kg/injection, schedule: Q04DX003 (ip), vehicle: saline with Tween-80 110 % of control

NC(CO)C(=O)NCC(=O)Oc1ccc([N+](=O)[O-])cc1 (configuration not stated) (H-[ξS]-Gly-ONp)
inactive: endpoint: mean survival time, dose: 75.0 mg/kg/injection, schedule: Q01DX001 (ip), vehicle: saline 100 % of control | endpoint: mean survival time, dose: 150.0 mg/kg/injection, schedule: Q01DX001 (ip), vehicle: saline 102 % of control | endpoint: mean survival time, dose: 300.0 mg/kg/injection, schedule: Q01DX001 (ip), vehicle: saline 96 % of control

CCCC[P+](CO)(CCCC)CCCC
inactive: endpoint: mean survival time, dose: 7.5 mg/kg/injection, schedule: Q04DX003 (ip), vehicle: saline 103 % of control | endpoint: mean survival time, dose: 15.0 mg/kg/injection, schedule: Q04DX003 (ip), vehicle: saline 98 % of control | endpoint: mean survival time, dose: 30.0 mg/kg/injection, schedule: Q04DX003 (ip), vehicle: saline 101 % of control

O=C(Nc1cc(Cl)c(NC(=O)c2ccccc2)c(Cl)c1)c1ccccc1
inactive: [6] 96 % of control | [7] 89 % of control | [8] 86 % of control

CN(Cc1ccc(Cl)cc1)N=Nc1ccc(C(=O)O)cc1
inactive: endpoint: mean survival time, dose: 7.9 mg/kg/injection, schedule: Q01DX009 (ip), vehicle: other 94 % of control | endpoint: mean survival time, dose: 15.7 mg/kg/injection, schedule: Q01DX009 (ip), vehicle: other 94 % of control | endpoint: mean survival time, dose: 31.3 mg/kg/injection, schedule: Q01DX009 (ip), vehicle: other 105 % of control | endpoint: mean survival time, dose: 62.5 mg/kg/injection, schedule: Q01DX009 (ip), vehicle: other 90 % of control | [1] 101 % of control | endpoint: mean survival time, dose: 125.0 mg/kg/injection, schedule: Q01DX009 (ip), vehicle: other 97 % of control | [2] 93 % of control

CCCCCCC(=C/c1ccccc1)/C=N/NC(=O)c1ccc[n+](C)c1
inactive: [4] 98 % of control
